The values below come from the supplement of paper PMC11962398.

Compound in assay [1]: T1, C[C@H]1CNCCN1c1nccc(-c2noc3c2CCC[C@@]32CCCc3sc(N)c(C#N)c32)n1 [BI-2493]
The conditions noted are these: 5 days. On the procedure:
(§1)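 PRISM pooled barcoded cancer cell line viability screen (Broad Institute) with BI-2493 at 8 doses in threefold dilutions from 0.00457 to 10 µmol/L, 5-day treatment; curves fitted per cell line. IC50 is undefined (placeholder) for resistant lines. AUC is capped at 1, and sensitivity is reported as 1 − AUC.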

Compound in assay [2]: T1, BI-2493
Nature of the assay: 1 - AUC of viability dose-response curve (sensitivity) (fraction); higher = more sensitive. To be noted: 5 days. The protocol: as §1

With OVK18_OVARY, the “IC50 of cell viability” value in the assay with BI-2493 [1] stood at 1.81 µM. The “1 - AUC of viability dose-response curve” value with BI-2493 [2] came to 0.228.

In the case of A388_SKIN, the “IC50 of cell viability” value in the assay with BI-2493 [1] is over 10 µM. Further, the “1 - AUC of viability dose-response curve” value with BI-2493 [2] was found to be 0.0151.

For the test system HEC1A_ENDOMETRIUM, in the assay with BI-2493 [1], the “IC50 of cell viability” value came to 3.64 µM. For the same test system, the “1 - AUC of viability dose-response curve” value in the assay with BI-2493 [2] was found to be 0.136.

For G292CLONEA141B1_BONE, the “IC50 of cell viability” value with BI-2493 [1] was over 10 µM. The “1 - AUC of viability dose-response curve” value with BI-2493 [2] came to 0.0653.

Turning to CALU1_LUNG, the “IC50 of cell viability” value in the assay with BI-2493 [1] was determined as 5.25 µM. Also, the “1 - AUC of viability dose-response curve” value with BI-2493 [2] amounted to 0.0917.

Regarding KS1_CENTRAL_NERVOUS_SYSTEM, in the assay with BI-2493 [1], the “IC50 of cell viability” value came out at 7.63 µM. Moreover, the “1 - AUC of viability dose-response curve” value in the assay with BI-2493 [2] is 0.0533.

As to LN464_CENTRAL_NERVOUS_SYSTEM, the “IC50 of cell viability” value in the assay with BI-2493 [1] is 4.83 µM. Also, in the assay with BI-2493 [2], the “1 - AUC of viability dose-response curve” value is 0.0968.

As to NCIH441_LUNG, the “IC50 of cell viability” value in the assay with BI-2493 [1] is 4.14 µM. Further, the “1 - AUC of viability dose-response curve” value with BI-2493 [2] stood at 0.168.

For the test system NCIH2122_LUNG, the “IC50 of cell viability” value with BI-2493 [1] came out at 3.6 µM. For the same test system, in the assay with BI-2493 [2], the “1 - AUC of viability dose-response curve” value came to 0.138.

94T778_SOFT_TISSUE: the “IC50 of cell viability” value with BI-2493 [1] amounted to 5.6 µM. Also, the “1 - AUC of viability dose-response curve” value with BI-2493 [2] was 0.112.

Take TF1_HAEMATOPOIETIC_AND_LYMPHOID_TISSUE: the “IC50 of cell viability” value with BI-2493 [1] was found to be 0.352 µM. Further, in the assay with BI-2493 [2], the “1 - AUC of viability dose-response curve” value is 0.427.

As for SF126_CENTRAL_NERVOUS_SYSTEM, the “IC50 of cell viability” value with BI-2493 [1] turned out to be 4.43 µM. For the same test system, the “1 - AUC of viability dose-response curve” value with BI-2493 [2] turned out to be 0.0902.

For MMNK1_BILIARY_TRACT, in the assay with BI-2493 [1], the “IC50 of cell viability” value was 4.9 µM. In addition, the “1 - AUC of viability dose-response curve” value with BI-2493 [2] was 0.0714.

Take MFE280_ENDOMETRIUM: the “IC50 of cell viability” value with BI-2493 [1] is over 10 µM. Moreover, the “1 - AUC of viability dose-response curve” value in the assay with BI-2493 [2] is 0.18.

With A172_CENTRAL_NERVOUS_SYSTEM, in the assay with BI-2493 [1], the “IC50 of cell viability” value came out at 4.33 µM. Further, the “1 - AUC of viability dose-response curve” value with BI-2493 [2] came out at 0.178.

On to RERFLCAD2_LUNG, for which the “IC50 of cell viability” value in the assay with BI-2493 [1] was 4.39 µM. The “1 - AUC of viability dose-response curve” value in the assay with BI-2493 [2] is 0.12.

Regarding DBTRG05MG_CENTRAL_NERVOUS_SYSTEM, in the assay with BI-2493 [1], the “IC50 of cell viability” value turned out to be 7.98 µM. Further, the “1 - AUC of viability dose-response curve” value with BI-2493 [2] was 0.0396.

Regarding HCC827_LUNG, the “IC50 of cell viability” value with BI-2493 [1] worked out at 7.98 µM. Also, the “1 - AUC of viability dose-response curve” value with BI-2493 [2] worked out at 0.0511.

For EB1_HAEMATOPOIETIC_AND_LYMPHOID_TISSUE, the “IC50 of cell viability” value with BI-2493 [1] came out at 9.47 µM. Besides, the “1 - AUC of viability dose-response curve” value with BI-2493 [2] turned out to be 0.0219.

With HT1197_URINARY_TRACT, in the assay with BI-2493 [1], the “IC50 of cell viability” value came to 4.69 µM. Moreover, the “1 - AUC of viability dose-response curve” value with BI-2493 [2] amounted to 0.0777.

As for KMRC3_KIDNEY, the “IC50 of cell viability” value with BI-2493 [1] was determined as 7 µM. In addition, the “1 - AUC of viability dose-response curve” value with BI-2493 [2] stood at 0.0597.

Consider FADU_UPPER_AERODIGESTIVE_TRACT, for which, in the assay with BI-2493 [1], the “IC50 of cell viability” value amounted to 6.09 µM. Moreover, the “1 - AUC of viability dose-response curve” value in the assay with BI-2493 [2] was determined as 0.102.

As for JHOM1_OVARY, in the assay with BI-2493 [1], the “IC50 of cell viability” value was determined as 4.83 µM. Moreover, the “1 - AUC of viability dose-response curve” value in the assay with BI-2493 [2] amounted to 0.119.

Take SCLC21H_LUNG: the “IC50 of cell viability” value in the assay with BI-2493 [1] came to 7.84 µM. In the assay with BI-2493 [2], the “1 - AUC of viability dose-response curve” value was 0.0414.

YD8_UPPER_AERODIGESTIVE_TRACT: the “IC50 of cell viability” value with BI-2493 [1] is over 10 µM. Also, the “1 - AUC of viability dose-response curve” value with BI-2493 [2] was found to be 0.0906.

Turning to GOS3_CENTRAL_NERVOUS_SYSTEM, the “IC50 of cell viability” value in the assay with BI-2493 [1] worked out at 9.35 µM. Besides, the “1 - AUC of viability dose-response curve” value with BI-2493 [2] turned out to be 0.0406.

Regarding CHAGOK1_LUNG, the “IC50 of cell viability” value with BI-2493 [1] came out at 4.47 µM. Also, the “1 - AUC of viability dose-response curve” value with BI-2493 [2] was found to be 0.173.

OSRC2_KIDNEY: in the assay with BI-2493 [1], the “IC50 of cell viability” value came out at 4.48 µM. The “1 - AUC of viability dose-response curve” value with BI-2493 [2] was 0.0909.

On to “WAOSEL_HAEMATOPOIETIC_AND_LYMPHOID_TISSUE”, for which the “IC50 of cell viability” value with BI-2493 [1] is 9.74 µM. Further, the “1 - AUC of viability dose-response curve” value with BI-2493 [2] is 0.00836.

Take SKES1_BONE: the “IC50 of cell viability” value in the assay with BI-2493 [1] is 6.06 µM. In addition, the “1 - AUC of viability dose-response curve” value with BI-2493 [2] amounted to 0.128.

In the case of HCC1806_BREAST, the “IC50 of cell viability” value in the assay with BI-2493 [1] is 5.35 µM. Besides, the “1 - AUC of viability dose-response curve” value with BI-2493 [2] was determined as 0.0665.

For HS729_SOFT_TISSUE, in the assay with BI-2493 [1], the “IC50 of cell viability” value came to 8.7 µM. In the assay with BI-2493 [2], the “1 - AUC of viability dose-response curve” value was 0.101.

For DMS53_LUNG, the “IC50 of cell viability” value with BI-2493 [1] was found to be 6.38 µM. In the assay with BI-2493 [2], the “1 - AUC of viability dose-response curve” value was 0.114.

Consider NCIH747_LARGE_INTESTINE, for which the “IC50 of cell viability” value with BI-2493 [1] stood at 0.323 µM. In addition, the “1 - AUC of viability dose-response curve” value with BI-2493 [2] turned out to be 0.384.

Consider NCIH1568_LUNG, for which, in the assay with BI-2493 [1], the “IC50 of cell viability” value is 7.78 µM. Also, the “1 - AUC of viability dose-response curve” value in the assay with BI-2493 [2] came to 0.0444.

As for PEDS005TSUSP_KIDNEY, the “IC50 of cell viability” value with BI-2493 [1] came out at 7.58 µM. In the assay with BI-2493 [2], the “1 - AUC of viability dose-response curve” value came to 0.0633.

On to UMUC5_URINARY_TRACT, for which, in the assay with BI-2493 [1], the “IC50 of cell viability” value was 7.6 µM. Moreover, the “1 - AUC of viability dose-response curve” value with BI-2493 [2] was found to be 0.0622.

KNS62_LUNG: in the assay with BI-2493 [1], the “IC50 of cell viability” value amounted to 1.79 µM. Further, the “1 - AUC of viability dose-response curve” value in the assay with BI-2493 [2] amounted to 0.271.
